Assays:
[1] = Photostability under continuous excitation for 3 hours; type: physicochemical
Protocol: (§1) Fluorescence spectra were recorded by a Horiba FluoroMax-4 spectrofluorometer. All samples were measured at a concentration corresponding to an optical density of 0.1 in water and a slit size of 1 nm by 1 nm unless specified. Quantum yields were also determined on same spectrofluorometer by using a Quantum-φ integration sphere at samples' maximum excitation wavelength and at an increment of 0.3 nm. Photostability studies were done by continuously exciting samples at their maximum excitation wavelength and monitoring at the maximum emission wavelength.
(§2) Fluorescence spectra were recorded on a Horiba FluoroMax-4 spectrofluorometer (Horiba Scientific, Edison N.J.). All polymer and samples were characterized at a concentration of 2 wt % in 1,4-dioxane and a slit size of 1 nm by 1 nm unless otherwise specified. The fluorescence properties of small molecule dyes were also measure in 2 wt % DI water solutions at same conditions as polymer solutions. BPLPs were also degraded in 1M K2CO3 solution at 37° C. for 24 hours and then neutralized with 1N HCl solution to pH7. The resulting degradation solutions were subject to further PL characterizations. Quantum yields were also determined on the same spectrofluorometer by using a Quantum-φ integration sphere (Horiba Scientific, Edison N.J.) at the same concentration and slit size with the blank solvent as the reference. Photostability of small molecules and polymers were determined by monitoring the emission intensity decay at their max. Excitation and emission wavelengths over 3 hours of continuous lumination in the spectrofluorometer.
Photostability of CFDs was characterized thereafter, since traditional organic dyes suffer from photobleaching. Various CFDs were tested under their maximum excitation and emission wavelengths for 3 hours, and the photoluminescence was normalized to the initial intensity.

[2] = Fluorescence spectra, absorbance and quantum yield (spectrofluorometer, integration sphere); type: physicochemical; conditions: for Shifting (emission shifting with excitation wavelength): CFD dyes; for Φ (quantum yield) / λem (maximum emission wavelength) / λex (maximum excitation wavelength) / ϵ (extinction coefficiency): Table III; for Max. Em. Wavelength / Max. Ex. Wavelength / Quantum Yield: representative CFDs, Table I
Protocol: Fluorescence spectra were recorded by a Horiba FluoroMax-4 spectrofluorometer. All polymer and small molecule samples were measured at a concentration of 2% w/w in 1,4-dioxane or DI water and a slit size of 1 nm by 1 nm unless otherwise specified. Quantum yields were also determined on the same spectrofluorometer by using a Quantum-φ integration sphere at the same concentration and slit size with the blank solvent as the reference. ^1H-NMR, ^13C-NMR were performed on a JNM ECS 300 spectrometer using DMSO-d6 or D2O as solvents. Attenuated total reflection Fourier transform infrared (ATR-FTIR) spectra were collected with a Bruker V70 spectrometer using BPLP films. A Shimadzu HPLC-MS system with a Phenomenex Kinetex 2.6u XB-C18 100 mm×2.9 mm column, a SPD M20A PDA detector and a RF-20AXS fluorescence detector (Ex. 360 nm and Em. 430 nm) was used to characterize the structures of fluorophores as well. The mobile phase was a gradient of DI water and acetonitrile with 0-6 min 2% acetonitrile, 6-12 min 2%-30% acetonitrile, and 12-15 min 2% acetonitrile. The flow rate was 0.15 ml/min. Electrospray ionization mass spectroscopy (ESI-MS) was performed with a positive voltage of 4.5 kV and negative mode voltage −4.0 kV and a CDL temperature of 200° C. The analysis of the degradation products of BPLPs were conducted by immersing BPLPs in 1M K2CO3 solution at 37° C. for 24 hours. After degradation, the solutions were neutralized by 1N HCl solution to pH 7 and characterized by HPLC-MS as described above.
as §1, §2
(§3) Absorbance Spectra were recorded on Tecan Infinite M200 Pro UV-vis spectroscopy, and fluorescence spectra were recorded on Horiba FluoroMax-4 fluorospectroscopy at concentrations below 0.1 O.D. unless otherwise indicated. Quantum Yields were measured on the Quantum φ Integrating Sphere accessory to the FluoroMax-4, while lifetime measurements were determined through the Time-Correlation Single Photon Counting (TCSPC) accessory to the FluroMax-4. TCSPC was utilized in conjunction with NanoLED pulsed diode light source with peak excitation wavelength at 352 nm and at 10,000 counts peak preset. Emission was collected at the fluorescence λmax, unless otherwise indicated. For all pH-dependence experiments, sample pH was adjusted with sulfuric acid or sodium hydroxide. For all chloride-dependent quenching experiments, magnesium chloride hexahydrate (Sigma Aldrich) was used.

[3] = Halide fluorescence quenching (Stern-Volmer); type: physicochemical; conditions: compared with CA-Cysteine
Protocol: as §3
When a fluorophore of [F] absorbs light energy, excitation raises a sub-population of [F] to the excited state, [F*], which then rapidly lose energy along radiative relaxation (kr) or non-radiative relaxation (knr) according to equation 7. If a quencher forms a complex with the excited fluorophore, an extra non-radiative component, kq, is added to equation 7 to account for the additional relaxation pathway that is a function of quencher concentration and its association constant.
[formula] Thus the quenching of fluorescence can be quantitatively analyzed by comparing the affected lifetimes. The Stern-Volmer (SV) relationship is used to determine kq, the bimolecular quenching rate constant for the diffusion coefficients of the fluorophore and quencher, by deriving a plot of τ0/τ versus [Q]:
[formula] Thus the linear slope of the SV plot, KSV, measures the efficiency of the quencher. Since sulfuric acid was used to study proton-induced quenching, the pH value was a better indicator of [H^+] due to incomplete dissociation of sulfuric acid at high concentrations. In the case of multiple quenchers, as will be discussed in this paper, equation 7 must include additional kq terms that result in modified form of equation 12 below:
[formula] If the two quenchers are act independently, the quencher of known quenching rate and concentration can be combined into the Y-intercept term in order to determine the quenching rate of the second, unknown quencher. […]
To translate halide quenching into quantitative sensing applications, a modified Stern-Volmer equation (Equation 14) was used to linearize the effects of two quenchers, protons and the halide being studied, on the fluorescence of CA-Cysteine. […]
Since the measured sample fluorescence is quenched by both protons and halides, the unquenched fluorescence, Io, was defined as the fluorescence of the neutral state CA-Cysteine in the absence of additional proton or halide quenchers. As mentioned above, the effects of protolytic equilibria stabilize around pH 2.2, where CA-Cysteine undergoes 99% conversion from the dianion state and is marked by constant fluorescence intensities (FIG. 13). […] Thus we chose the fluorescence intensity at pH 2.2 (in the absence of halides) as the unquenched reference signal, Io. IH,Cl in equation 23 is the sample fluorescence at the pH and halide concentration indicated. […]

[4] = pH dependence of fluorescence / pH sensing; type: physicochemical
Protocol: as §3
pH Dependence of CA-Cys Fluorescence. Of all solvent and environmental factors that affect fluorescence, CA-Cys appeared to display the greatest sensitivity to changes in pH. […] From a detailed analysis of FIG. 13, four correlations were observed. Fluorescence properties of CA-Cys were invariable from high basicity to a pH of 4.84, from which the excitation λmax began to red-shift from 350 nm, emission λmax began to red-shift from 418 nm, maximum fluorescence intensity began to decrease, and quantum yield began to decrease. As acidity was increased, all four trends continued until pH 2.44, from which the excitation λmax plateaued at 365 nm, emission plateaued at 445 nm, and fluorescence intensity and quantum yield both experienced a short local plateau. Similarly, Stokes shift increased from 67 nm to 80 nm in high acidity. Lastly, absorbance λmax shifted similarly to that of the maximum excitation, while absorbance intensities remained relatively constant. […] All of these patterns were reminiscent of a pH-dependent equilibrium, thus the predominant mechanism of intensity quenching and bathochromic shifts was hypothesized to be attributed to changes in protolytic equilibria. The noticeably linear quenching of intensities past pH 1.63 is discussed with respect to lifetime analysis herein below.
There is a predictable, linear increase in intensity from pH 3 to 4.5. Furthermore, emission collected at a fixed 445 nm is shown in FIG. 15 to be an isobestic point where intensities are independent of pH (up to pH 1), which should greatly improve the functionality of CA-Cys as a pH sensor. In other words, utilizing 445 nm as a dual-wavelength reference point allows for background subtraction and normalization with respect to absorbance or concentration. […] Furthermore, I418 nm/I445 nm increases linearly in the region of pH 3 to 4.5 for accurate determination of pH within this region, plotted and fitted with an R^2 value of 0.982. To sum up, I418 nm/I445 nm values near 1.6 indicate pH above 4.5, values below 0.7 indicate highly acidic environments below pH 3, while any intermediate I418 nm/I445 nm values can determine the exact pH with good accuracy. It is important to note that CA-Cys fluorescence is in accordance with Kasha's rule, i.e. fluorescence occurs from the lowest excited state, S1→S0, thus the emission λmax is independent of the excitation wavelength, and a fluorescence excitation scan at a fixed emission of 418 nm or 445 nm would provide the maximum fluorescence intensity for that emission wavelength. Also of importance is the reliable range of the isobestic point, which is broken at high acidities (noticeably below pH 1) due to dynamic quenching effects.

[5] = commercial halide sensors; cited from earlier work
[6] = Time-resolved fluorescence lifetime (TCSPC); type: physicochemical; conditions: one-exponential decay, pulsed excitation at 352 nm, maximum emission wavelength
Protocol: Fluorescence lifetimes were determined by using the Time-Correlation Single Photon Counting (TCSPC) accessory to the FluroMax-4 (Horiba, NJ). NanoLED pulse light sources at wavelengths of 352 nm and 390 nm were used for excitation. For each decay curve, 10,000 photons were collected. Fluorescence lifetime decays were fitted with an exponential series according to equation 1 below:
[formula] where F(t) is the lifetime decay function with respect to time t, Ti is the lifetime value of the emitting species, A is the background offset, and Bi is the pre-exponential function of the emitting species. The method of least squares was used to quantify χ^2 based on the decay data and the fitting function, where χ^2 values smaller than 1.2 indicates a good fit; and values above 1.2 indicate need for multiple exponential fitting in equation 1. If the lifetime decay is dominated by one emitting species, the equation can be simplified to include only the first two terms. One exponential fitting is good for TPA based fluorophores. However, for DPR based fluorophores, only three exponential fitting gives a χ^2 smaller than 1.2. E. Computational Modeling
as §3
Fluorescence lifetime decays were fitted with an exponential series according to equation 5 below:
[formula] Where F(t) is the lifetime decay function with respect to time t, Ti is the lifetime value of the emitting species, A is the background offset, and Bi is the pre-exponential function of the emitting species. If the lifetime decay is dominated by one emitting species, the equation can be simplified to include only the first two terms. Bi measures the relative amplitude of the specified fluorophore, where the percent contribution of the fluorophore to the lifetime decay, f, is derived from equation 6:
[formula] The method of least squares was used to quantify χ^2 based on the decay data and the fitting function, where χ^2 values under 1.2 indicates a good fit, and values above 1.2 indicate need for additional terms in equation 5. Typically, an additional exponential term was necessary to improve the χ^2 value and account for the presence of a negligible 6 ns species, deemed to stem from by-products of CFD synthesis, impurities, or CFD dimers. Since the contribution from this species was minor, often less than 5%, it was not included in lifetime analysis.

Row | SMILES | Shifting (emission shifting with excitation wavelength) [2] | Φ (quantum yield) [2] | λem (maximum emission wavelength) [2] | λex (maximum excitation wavelength) [2] | ϵ (extinction coefficiency) [2] | Max. Em. Wavelength [2] | Max. Ex. Wavelength [2] | Quantum Yield [2] | pH dependence of halide quenching [5] | also measured
1 | O=C(O)c1cc2n(c(=O)c1)CCS2 [CA-Cysteamine] | No | 79.3% | 445 nm | 365 nm | 3880 M⁻¹ cm⁻¹ | 445 nm | 365 nm | 79.3% | – | photostability ([1]; FIG. 19): strong photostability; halide sensitivity [3]: increase sensitivity of all halides across all pH
2 | CCCN1C(=O)C=C(C(=O)O)CC1=O [CA-Propylamine] | Yes | 24.6% | 424 nm | 359 nm | 6.6 M⁻¹ cm⁻¹ | 422 nm | 359 nm | 22.1% | – | photobleaching relative to Fluorescein and Rhodamine B ([1]; 3 hours continuous excitation): less stable; pH sensitivity [4]: PH insensitive
3 | CC[n+]1cccc2cc(OC)ccc21.[I-] [MEQ] | – | – | – | – | – | – | – | – | quenched by halides independent of pH | –
4 | CCOC(=O)C[n+]1cccc2cc(OC)ccc21.[Br-] [MQAE] | – | – | – | – | – | – | – | – | quenched by halides independent of pH | –
5 | CCN(CC)c1ccc2c(-c3ccccc3C(=O)O)c3ccc(=[N+](CC)CC)cc-3oc2c1.[Cl-] [Rhodamine B, reference compound] | – | – | – | – | – | – | – | – | – | fluorescence lifetime τ [6]: 1.75 ns
6 | COc1ccc2c(ccc[n+]2CCCS(=O)(=O)[O-])c1 [SPQ] | – | – | – | – | – | – | – | – | quenched by halides independent of pH | –
